The values below come from patent US20250019371A1, “SMALL-MOLECULAR INHIBITORS FOR THE BETA-CATENIN/ B-CELL LYMPHOMA 9 PROTEIN-PROTEIN INTERACTION” (H. LEE MOFFITT CANCER CENTER AND RESEARCH INSTITUTE, INC., priority 2021, published 2025).

The test system of one test is β-catenin/E-cadherin PPI. As to the kind of experiment: Co-immunoprecipitation in HCT116 cells, β-catenin/E-cadherin. Type of test: cell-based. The following applies: concentrations sufficient to disrupt β-catenin/BCL9. The protocol: (§1) C0-Immunoprecipitation (C0-IP) Experiments. HCT116 cancer cells with hyperactive 8-catenin signaling at 1×10^6 cells/mL were treated with different concentrations of the inhibitor for 24 h. Cells were then lysed in buffer containing 50 mM Tris, pH 7.4, 150 mM NaCl, 1% Nonidet P-40, 2 mM EDTA, and protease inhibitors. The cell lysates were pre-adsorbed to A/G plus agarose (sc-2003, Santa Cruz Biotechnology) at 4° C. for 1 h. Pre-adsorbed lysates were incubated with a specific primary antibody against β-catenin (610153, BD Biosciences) overnight at 4° C. A/G plus agarose was then added to the lysate mixture and incubated for 3 h. The beads were washed four times with the lysis buffer at 4° C. The bound protein was eluted by boiling in the SDS sample buffer and loaded onto 8% SDS polyacrylamide gel for electrophoretic analysis. Separated proteins were transferred onto nitrocellulose membranes for immunoblot analysis. The antibodies against BCL9 (ab37305, Abcam) and E-cadherin (610404, BD Biosciences), were incubated with the membranes, respectively. IRDye 680LT goat anti mouse IgG (827-11080, LiCOR) and IRDye 800CW goat anti rabbit IgG (926-32211, LiCOR) were used as the secondary antibodies. The images were detected by the Odyssey Infrared Imaging System (LiCOR). Experiments were performed in triplicate.

Test [1] deals with Axin2, cyclin D1 and LEF1 mRNA. As to the kind of experiment: qPCR of Wnt target genes in Wnt 3a-activated MDA-MB-231 cells. Type of test: cell-based, human. The following applies: 24 h, HPRT spared. The protocol: (§2) Quantitative Real Time PCR analysis. SW480 cells at 1×10^6 cells/mL were treated with inhibitors at different concentrations for 24 h. MDA-MB-231 cells at 1×10^6 cells/mL were treated with 100 ng/mL recombinant Wnt 3a (rmW3aL-010, Time BioScience) for 30 min, then the inhibitors at different concentration were added and incubated for 24 h. Total RNAs were extracted with TRIzol (15596026, Life Technologies), and the cDNA was synthesized with the superscript III first-strand kit (18080-051, Invitrogen). qPCR experiments were performed using the iQTM SYBR green supermix kit (170-8880, BIO-RAD) on an CFX96 Real Time System (BIO-RAD). The threshold cycle (CT) values were normalized to that of internal reference GAPDH. Experiments were performed in triplicate. The primer pairs are shown below
For orientation: Quantitative PCR measures a nucleic acid by following its amplification.

The subject of test [2] is FOPFlash luciferase reporter (mutated Tcf4 binding sites). The test can be described thus: FOPFlash luciferase reporter assay in SW480 cells. In kind it is cell-based. The note with it: same concentration range as TOPFlash. The protocol:
The suppressing effect of the inhibitors on transactivation of Wnt/β-catenin signaling was evaluated by the TOPFlash/FOPFlash luciferase reporter assay. In the TOPFlash assay, the luciferase reporter has three wild-type Tcf4 binding sites, while in the FOPFlash assay Tcf4 binding sites were mutated. These tandem Tcf binding sites controls the expression ratio of the firefly luciferase in TOPFlash/FOPFlash assays. The renilla luciferase reporter construct (pCMV-RL) was used as the internal control to normalize luciferase reporter signals and eliminate any possible systematic errors. […] This selectivity trend is consistent with that from MTS cell viability assays. Therefore, further cell-based studies were focused on compound 30.
Cell Transfection and Luciferase Assay. FuGENE6 (E269A, Promega) 96 well plate format was used for the transfection of SW480 cells according to the manufacturer's instruction. SW480 cells were co-transfected with 60 ng the TOPFlash or FOPFlash firefly luciferase reporter gene and 40 ng renilla luciferase pCMV-RL normalization reporter gene. Cells were cultured in DMEM and 10% FBS at 37° C. for 24 h, and different concentrations of inhibitors or DMSO was added. After 24 h, the luciferase reporter activity was measured using the Dual-Glo system (E2940, Promega). […]
For orientation: Reporter assays use an easily measured gene product as a stand-in for the process of interest.

The test system of another test is MDA-MB-468. As to the kind of experiment: MTS cell viability assay, MDA-MB-468. Type of test: cell-based. The following applies: Homo sapiens, 72 h, Wnt/β-catenin hyperactive, mean ± SD (n = 3). The protocol: (§3) MTS Cell Growth Inhibition Experiments. Colorectal cancer cells (SW480 and HCT116) and triple negative breast cancer cells (MDA-MB-231 and MDA-MB-468) were seeded in 96-well plates at 5×10^3 cells/well in DMEM with 10% FCS, maintained overnight at 37° C., and incubated with the tested compounds at various concentrations. Human mammary epithelial cell MCF10A were seeded in 96-well plates at 1×10^4 cells/well in MEGM (CC-3150, Lonza) with 100 ng/mL cholera toxin, maintained overnight at 37° C., and incubated with the tested compounds at various concentrations. Cell viability was monitored after 72 h using a freshly prepared mixture of 1 part phenazine methosulfate (PMS, Sigma) solution (0.92 mg/mL) and 19 parts 3-(4,5-dimethylthiazol-2-yl)-5-(3-carboxymethoxyphenyl)-2-(4-sulfophenyl)-2H-tetrazolium (MTS, Promega) solution (2 mg/mL). Cells were incubated in 10 μL of this solution at 37° C. for 3 h, and A490 was measured. […] Experiments were performed in triplicate.
(Tetrazolium dyes change colour on reduction, which living cells bring about.)

Test [3] relates to Axin2, cyclin D1 and LEF1 mRNA. The test can be described thus: qPCR of Wnt target genes in SW480 cells. In kind it is cell-based, human. The following applies: 24 h, HPRT spared. The protocol: as §2
The test system of test [4] is Wnt/β-catenin hyperactive cancer cells. The test can be described thus: MTS cell viability assays, cell panel. The note with it: SW480, HCT116, MDA-MB-231, MDA-MB-468; read-out: IC50s for viability of Wnt/β-catenin hyperactive cancer cells. In kind it is cell-based. The protocol: as §3
For another test, the system named is MCF10A. As to the kind of experiment: MTS cell viability assay, MCF10A. Type of test: cell-based, human. The note with it: Homo sapiens, MCF-10A; 72 h, Wnt/β-catenin normal, mean ± SD (n = 3). The protocol:
as §3

Another test deals with HCT116. The test can be described thus: MTS cell viability assay, HCT116. Type of test: cell-based. The following applies: Homo sapiens, HCT-116; 72 h, Wnt/β-catenin hyperactive, mean ± SD (n = 3). The protocol: as §3
The next test concerns β-catenin/BCL9 PPI. As to the kind of experiment: Co-immunoprecipitation in HCT116 cells, β-catenin/BCL9. Type of test: cell-based. The following applies: 24 h, full-length proteins. The protocol: as §1
Another test concerns MDA-MB-231. As to the kind of experiment: MTS cell viability assay, MDA-MB-231. In kind it is cell-based. The note with it: Homo sapiens, 72 h, Wnt/β-catenin hyperactive, mean ± SD (n = 3). The protocol:
as §3

Molecules are shown by their SMILES.

As to `CC(C)(Oc1cccc(N2CCC[C@H](C(=O)N(Cc3ccc(-c4cccs4)cc3)C3CC3)C2)c1)C(=O)NS(=O)(=O)c1ccc(C#N)cc1` [Compound 30, (S)-((4-Cyanophenyl)sulfonyl) (2-(3-(3-(cyclopropyl(4-(thiophen-2-yl)benzyl)carbamoyl)piperidin-1-yl)phenoxy)-2-methylpropanoyl)amide], the “effect on β-catenin/E-cadherin PPI in cells (co-IP)” value in the test with β-catenin/E-cadherin PPI is listed as “did not affect the β-catenin/E-cadherin PPI”. Further, the “transcription of Wnt target genes Axin2, cyclin D1, LEF1 (qPCR)” value in [1] and in [3] was “dose-dependently inhibited transcription of these Wnt target genes” each time. In addition, in test [2], the “effect on FOPFlash luciferase reporter activity” value is “did not show any inhibitory effect”. Besides, the IC50 was 17.8 ± 1.01 µM in the test with MDA-MB-468; 14 to 30 µM in test [4]; 139 ± 3.16 µM in the test with MCF10A; 29.6 ± 1.02 µM with HCT116; 14.3 ± 0.57 µM in the test on MDA-MB-231. Also, the “disruption of β-catenin/BCL9 PPI in cells (co-IP)” value in the test on β-catenin/BCL9 PPI is reported as “disrupted the β-catenin/BCL9 PPI in a dose-dependent manner”.
